Test results from PubChem BioAssay AID179 (DTP/NCI, 2004).
pEC50, pIC50: −log10 of the molar value. Activity calls are given as the source filed them.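 Rule for the calls: active = compounds giving half or more protection of infected cells from virus-caused growth loss, again on retest; inactive = the rest.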

System: CEM cells HIV-1 protection, formazan growth assay
Assay: NCI AIDS Antiviral Assay
Details: for pIC50: measured here: growth of uninfected CEM cells
Summary of the method: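 Protection of CEM cells against HIV-1 was scored from cell growth (soluble formazan) across five concentrations, with parallel uninfected cells. Lack of protection may reflect toxicity.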

Row | Structure (SMILES) | pEC50 | pIC50 | outcome
1 | CCOC(=O)C(=O)Nc1c(CC)cccc1C(C)C | < 3.45 | < 3.45 | 
2 | Cc1ncc2c[n+]([O-])ccn12 | < 2.78 | < 2.78 | 
3 | CCc1ccc(C2=C(O)C(=O)C(c3ccc(CC)cc3)=C(O)C2=O)cc1 | < 4.15 | 5.01 | 
4 | CCCCCC(=O)OC1CN2CC[C@H](O)C2C(O)[C@@H]1O (stereo not given in full) |  |  | inactive
5 | O=C1CCCC(C(Sc2ccccc2)(Sc2ccccc2)Sc2ccccc2)C1 (stereo not given) | < 3.70 | 4.92 | 
6 | O=[N+]([O-])/C=C/c1cc2ccc3ccccc3c2[nH]1 | < 3.70 | 5.99 | 
7 | COc1ccc(C(O)c2nccn2C)c(OC)c1 (stereo not given) | < 3.70 | < 3.70 | 
8 | O=C1c2c(Br)sc(Br)c2C(NC(=O)C(F)(F)F)C1O (stereo not given) | < 3.70 | 4.45 | 
9 | CC1CC(=O)Nc2ccccc2N1C(=O)C1CC1 (stereo not given) | < 3.70 | < 3.70 | 
10 | CC(=O)O[C@H]1C#C/C=C\C#CC[C@@H]2C(=O)N(C(=O)OC(C)(C)C)[C@@H]12 | < 4.70 | 5.95 | 
11 | Cc1cc(N(CCC#N)CCC#N)ccc1/C=C(\NC(=O)/C=C/c1ccccc1)C(=O)Nc1ccccc1Cl |  |  | inactive
12 | CC1(C)CNC[C@@](C)(O)C(=O)[N-]C(C)(C)CNC[C@](C)(O)C(=O)[N-]1.[Ni+2] | < 3.70 | 3.92 | 
13 | O=C(O)C1=C(Cl)c2ccccc2S1(=O)=O |  |  | inactive
14 | O=C(OCCN1CCCC1)c1cc2ccccc2[nH]1 | < 3.70 | < 4.00 | 
15 | O=C(Nc1ccc([N+](=O)[O-])cc1C(=O)O)c1ccc([N+](=O)[O-])cc1 |  |  | inactive
16 | O=C(CSS(=O)(=O)O)c1ccccc1 | < 3.70 | < 3.70 | 
17 | O=C(O)Cc1ccccc1CCc1ccccc1Cl | < 3.32 | 3.60 | 
18 | CCc1ccc(/C(C#N)=C/c2ccc(OC)cc2)cc1 | < 3.70 | 5.40 | 
19 | COC(OC(CO)C(O)S(=O)(=O)O)C(O)S(=O)(=O)O (stereo not given) | < 3.70 | 4.49 | 
20 | COc1cc(OC)c(/C=C/c2ccc3ccccc3[n+]2[O-])c(OC)c1 | < 4.25 | < 4.25 | 
21 | CC(C)c1ccc(/C=C2\CSC/C(=C\c3ccc(C(C)C)cc3)C2=O)cc1 | < 3.70 | 3.91 | 
22 | CN(C)c1ccc(/C=C(\NC(=O)c2ccccc2)C(=O)NCC(=O)O)cc1 | < 4.00 | < 4.00 | 
23 | O=C(Cc1ccc([N+](=O)[O-])cc1)OCC#CCOC(=O)Cc1ccc([N+](=O)[O-])cc1 | < 3.70 | < 3.70 | 

Row | Structure (SMILES) | pEC50 | pIC50 | outcome
24 | N#CC1(C#N)C(C#N)(C#N)C12CCCCCC2 |  |  | inactive
25 | C[C@H](N)C(=O)N[C@@H]1[C@H]2C(=C(O)C[C@@H](O)[C@@H]2O)C(=O)O[C@]1(C)C(Cl)Cl | < 4.17 | 6.65 | 
26 | CS(=O)(=O)OCCN1CCN(C(=O)c2ccc(Cl)c3c(Nc4ccc(S(=O)(=O)N=C(N)N)cc4)c4ccccc4nc23)CC1 | < 4.47 | < 4.47 | 
27 | Nc1nn2cc3c(nc2c1N=Nc1ccccc1)-c1ccccc1C3 | < 3.70 | < 3.70 | 
28 | O=c1cc2c(n[nH]1)CCCC2 | < 3.15 | < 3.15 | 
29 | COC(=O)/C=C/C1C2C3(CCC(C)C12C)OCCS3 (stereo not given) | < 3.90 | < 3.90 | 
30 | COC(=O)C1=CCC(n2cc(C)c(=O)[nH]c2=O)CC1 (stereo not given) | < 3.59 | < 3.59 | 
31 | CN1C(=O)N(C)C(N2CCCC2)c2c1nc1ccccn1c2=O (stereo not given) | < 3.66 | 4.18 | 
32 | N#CC1(C#N)C2CCCCC23OC(=N)C1(C#N)C(c1ccco1)O3 (stereo not given) | < 3.70 | 5.24 | 
33 | COc1cc(C(CN)N(C)C)cc(OC)c1OC (stereo not given) | < 3.70 | < 3.70 | 
34 | C[N+]1(C)N=C(c2ccccc2)C=C1[O-] | < 3.70 | < 3.70 | 
35 | NC(=O)N/N=C(\CC1OC(=O)c2ccccc21)c1ccc([N+](=O)[O-])cc1 (stereo not given) |  |  | inactive
36 | O=c1cc(NNc2ccccc2)[nH]c(=O)[nH]1 | < 3.70 | 5.99 | 
37 | Cc1nc(-c2nc(C)c(C(=O)/C=C/c3ccc(N(C)C)cc3)s2)sc1C(=O)/C=C/c1ccc(N(C)C)cc1 | < 4.46 | < 4.46 | 
38 | C=C1C(=O)O[C@@H]2[C@H]1CCC(C)=C1C=CC(=O)[C@]12C |  |  | inactive
39 | COc1ccc2cc(C(C)C(=O)N3CCOC3=O)ccc2c1 (stereo not given) | < 3.70 | < 3.70 | 
40 | O=C1c2ccccc2CCCC12OC2c1cccnc1 (stereo not given) | < 3.59 | 3.82 | 
41 | Cc1ccc(SCC(CF)OCn2cnc3c(N)ncnc32)cc1 (stereo not given) | < 3.70 | < 3.70 | 
42 | NCCCSCC(=O)O |  |  | inactive
43 | C=CC(=O)N1C/C(=C\c2ccccc2)C(=O)/C(=C/c2ccccc2)C1 | < 4.80 | 6.03 | 
44 | O=c1[nH]cnc2c1ncn2[C@@H]1C[C@H]1CO |  |  | inactive
45 | CCCC(=O)OCc1cc(=O)n(C)c2c3c4c(cc12)c(C)cc(=O)n4CO3 | < 3.76 | 5.17 | 
46 | O=c1c2n[nH]nc2nc2n1CC(c1ccccc1)S2 (stereo not given) |  |  | inactive

Row | Structure (SMILES) | pEC50 | pIC50 | outcome
47 | Cc1cccc2c1Oc1cc(Cl)ccc1C2NC(=O)CCN1CCN(CCO)CC1 (stereo not given) | < 3.70 | 4.87 | 
48 | Cc1cc(=N)cc(C)n1O | < 2.74 | < 2.74 | 
49 | O=C(Nc1ccccc1)N(C1=NCC(CI)S1)c1ccc(F)c(F)c1 (stereo not given) | < 3.70 | 4.74 | 
50 | Cc1ccc(N2CCC3(CC2)OCCO3)cc1 |  |  | inactive
51 | S=c1nc[nH]c2nc[nH]c12 | < 3.63 | 5.82 | 
52 | O=[As](O)(O)c1cccc(F)c1 | < 3.70 | 3.97 | 
53 | COc1ccc(/C=N/n2c(=O)[nH]c3ccccc3c2=O)cc1 | < 3.70 | < 3.70 | 
54 | C[C@@H]([C@H]1[C@H](O)C[C@@]2(C)[C@@H]3C=C[C@H]4C(C)(C)[C@@H](N(C)C)CC[C@@]45C[C@@]35CC[C@]12C)N(C)C | < 4.00 | < 4.00 | 
55 | c1ccc(SC2CCCCO2)cc1 (stereo not given) |  |  | inactive
56 | O=C(O)/C=C/C=C/c1ccccc1 | < 3.70 | < 3.70 | 
57 | CCN1CN(c2ccccc2)C2(CCN(CCCSc3ccc(F)cc3)CC2)C1=O | < 3.70 | 5.00 | 
58 | COC=C=CC(C)(C)OC | < 3.26 | < 3.26 | 
59 | CCCCCCCCCCC(C)CCCCCCC(=O)OCC(COP(=O)([O-])OCC[N+](C)(C)C)OC(=O)CCCCCCC(C)CCCCCCCCCC (stereo not given) |  |  | inactive
60 | CCSc1nc(=S)n(-c2ccccc2)c(C)c1C(C)=O | < 3.70 | < 3.70 | 
61 | Brc1cc(C2OCCCO2)ccc1OCc1ccccc1 | < 4.27 | < 4.27 | 
62 | N#CC(=N)c1ncn(CCO)c1NC(=O)C(F)(F)F | < 3.70 | < 3.70 | 
63 | COc1cc(C(=O)NC(CCN)(c2ccccc2)c2ccccc2)cc(OC)c1OC | < 3.70 | 4.17 | 
64 | COC(=O)C1=CC(NC(=O)OCc2ccccc2)C(C(=O)c2ccccc2)C[C@@H]1Sc1ccccc1 (stereo not given in full) |  |  | inactive
65 | O=[As](O)(O)c1ccc(-c2ccc([As](=O)(O)O)cc2)cc1 | < 3.70 | < 3.70 | 
66 | CC(C)CCC[C@@H](C)[C@H]1CC[C@H]2[C@@H]3CCC4C[C@@H](OP(=O)(O)OCCC=C(c5cc(Cl)c(O)c(C(=O)O)c5)c5cc(Cl)c(O)c(C(=O)O)c5)CC[C@]4(C)[C@H]3CC[C@]12C (stereo not given in full) | < 3.70 | 4.47 | 
67 | Nc1nc(Cl)cc(NCC2(CO)CCC(O)C2)n1 (stereo not given) | < 3.70 | < 3.70 | 
